Values joined by “and” are separate entries in the source; they are usually repeats but may differ in a detail not shown here. Equal values may be shown once. Read-outs that look alike come from different tables or passages of the source.
What was measured:
C. briggsae complex I = C. briggsae complex I (Caenorhabditis briggsae, UniProt A8X476+A8XFG2+Q8HEC4); experiment: In vitro complex I activity assay, C. briggsae mitochondria; format: biochemical
Protocol: Mitochondria were isolated from the following free-living nematode strains: C. elegans—N2, CB3474, ECA882, ECA917, ECA1075, ECA1080; C. briggsae—AF16; P. pacificus—PS312; and P. hermaphrodita—B178. With the exception of the P. hermaphrodita strain B178, adult worms of each strain were grown in bulk through liquid culture to obtain mitochondria in sufficient quantities. Due to poor growth in liquid media, mixed stage populations of P. hermaphrodita were washed off and collected from NGM plates seeded with OP50. The isolation of mitochondria from all free-living nematode strains followed the protocol previously outlined in Burns et al.[24]. In brief, a 1 L saturated culture of E. coli HB101 was concentrated 20-fold in 50 mL complete S-medium. ~500,000 L1 worms synchronized from an embryo preparation performed the day prior were added to the S-media/HB101 suspension and grown to adulthood over the course of 3.5 days at 20 °C with shaking at 165 rpm. Following growth, worms were collected in 10 ×15 mL conical tubes and washed 7 times in M9 buffer. Worm suspensions were then combined into a single 15 mL conical tube and diluted to a final volume of 15 mL with M9 buffer. 1 mL aliquots of worm suspension were then distributed to 15 × 1.5 mL screw-cap microcentrifuge tubes and were pelleted at 500 g for 1 min. Excess M9 was aspirated without disturbing the worm pellet. 600 μL ice-cold isolate buffer A (250 mM sucrose, 10 mM Tris (pH 7.5), 1 mM EDTA, 1 mM PMSF (freshly prepared)) and 300 μL cold glass beads were then added to each tube. Tubes were incubated on ice for 10 min, and the worms were then lysed by bead beating (6 x 30 s, with 1 min cooling intervals). Tubes containing worm lysate were centrifuged at 1,000 g for 10 min at 4 °C and the supernatant was transferred to 15 new microcentrifuge tubes on ice. The tubes were centrifuged a second time at 1,000 g for 10 min at 4 °C and the supernatant was once again transferred to 15 new microcentrifuge tubes on ice. These tubes were then centrifuged at 16,000 g for 10 min at 4 °C. The resulting mitochondrial pellet was washed twice by re-suspension in 300 μL of ice-cold isolate buffer B (250 mM sucrose, 10 mM Tris (pH 7.5), 1 mM EDTA). Following the final wash, isolation buffer was aspirated from each tube and the pellets were flash-frozen in ethanol/dry ice and stored at −80 °C until needed.
The enzymatic activities of individual ETC complexes (I-IV) were assessed spectrophotometrically in isolated mitochondria using a Varioskan LUX Multimode plate reader (ThermoFisher Scientific). Mitochondrial pellets previously isolated were thawed on ice and resuspended in ice-cold isolation buffer (250 mM sucrose, 10 mM Tris (pH 7.5), 1 mM EDTA). The BCA assay (Walker, 1994) was used to quantify the protein concentration of mitochondria suspensions; solutions were diluted to a concentration of 0.2 mg/mL for use in all assays. For the complex I assay, mitochondria pellets were freeze-thawed on ice three times to increase enzyme accessibility. […] 20 μL mitochondria suspension was then added/mixed with a pipette to initiate the reaction. Immediately following the addition of mitochondria, absorbance was measured (complex I and II: 600 nm; complex III and IV: 550 nm) in 30 s intervals over 15 min. Enzymatic activity was determined in each reaction by plotting absorbance versus time and calculating the slope of the curve during the initial linear phase of the reaction. […] Percent activity of each complex was calculated by dividing the enzyme-specific activity of each well by the enzyme-specific activity of the corresponding solvent controls.
Chemical solutions were prepared in complex I assay buffer composed of 25 mM KPi buffer (pH 7.5), 3 mg/mL bovine serum albumin (BSA), 80 μM NADH, 60 μM decylubiquinone, 160 μM DCIP, 2 μM antimycin A and 2 mM KCN.
For preliminary screens of hit compounds, compounds were screened at 100 μM; data are the average of at least three biological replicates.

H. polygyrus = experiment: In vivo efficacy study in H. polygyrus mouse model; parameters: species or system NMRI mice infected with H. polygyrus; settings: for # Mice cured/ # Mice investigated: assessed 1 week after dosing; for Median # of living H. polygyrus worms: median (MAD) of adults collected from intestine; for Live worms in intestine (individual mouse) / Live worms in intestine, Median (+/- MAD): worm burden one week after dose; for Live worms in intestine (individual mouse): Mouse 1-4, 200 mg/kg; for Live worms in intestine, Median (+/- MAD): three to four mice
Protocol: For in vivo testing, female 3-week old NMRI mice were purchased from Charles River, Germany. The mice were kept in individually ventilated cages (IVC) under environmentally controlled conditions (temperature: 22 °C ± 2 °C; relative humidity: 55% ± 15%; artificial lighting with a circadian cycle of 12 h of light) and had free access to water (municipal tap water supply) and rodent food. Rodents were allowed to acclimatize to the new environment for 1 week before infection. Upon 2 days of arrival, dexamethasone (0.25 mg/L) (Sigma-Aldrich, Switzerland) was added to the normal drinking water for immunosuppression to enable parasite establishment. After 1 week, mice were orally infected with 100 H. polygyrus third larval stage (L3) in 150 µL water.
Four benzimidazole derivatives were tested for in vivo efficacy. The administration of dexamethasone was stopped after 12 days post-infection and 2 days later, the selected four benzimidazole derivatives were administered by oral gavage at a single dose of 200 mg/kg to groups of each four mice. Four mice were left untreated and served as a control group. The derivatives were prepared as a Tween80 (Sigma-Aldrich, Switzerland)/ethanol (Merck, Germany) mixture dissolved in tap water (7:3:90, v/v). After 6–7 days post-dosing, the mice were euthanized with CO2 and dissected. Adult worms were removed from the intestine and counted. The worm burden reduction was calculated by comparing the number of worms found in the control animals versus the treated animals.

[1] = C. briggsae mitochondria, Mean, read-out: in vitro complex I activity relative to solvent control
[2] = C. briggsae mitochondria, single replicate, read-out: in vitro complex I activity relative to solvent control
[3] = single oral dose 200 mg/kg, vs untreated control mice
[4] = single oral dose of 200 mg/kg, median worm counts versus control mice

C. briggsae complex I, sequence (A8X476 31-482): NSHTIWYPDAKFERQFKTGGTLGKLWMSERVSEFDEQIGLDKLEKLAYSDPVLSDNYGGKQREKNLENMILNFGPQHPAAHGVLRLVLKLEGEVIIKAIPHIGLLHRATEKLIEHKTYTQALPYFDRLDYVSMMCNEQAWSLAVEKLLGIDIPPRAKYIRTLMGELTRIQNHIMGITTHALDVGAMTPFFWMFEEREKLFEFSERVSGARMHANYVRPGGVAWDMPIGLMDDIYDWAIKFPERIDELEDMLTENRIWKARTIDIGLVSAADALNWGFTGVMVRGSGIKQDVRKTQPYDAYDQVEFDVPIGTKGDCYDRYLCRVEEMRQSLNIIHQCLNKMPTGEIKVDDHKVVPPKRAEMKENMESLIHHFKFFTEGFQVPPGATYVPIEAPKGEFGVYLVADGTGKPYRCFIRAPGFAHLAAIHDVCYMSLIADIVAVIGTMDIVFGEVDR
C. briggsae complex I, sequence (A8XFG2 17-199): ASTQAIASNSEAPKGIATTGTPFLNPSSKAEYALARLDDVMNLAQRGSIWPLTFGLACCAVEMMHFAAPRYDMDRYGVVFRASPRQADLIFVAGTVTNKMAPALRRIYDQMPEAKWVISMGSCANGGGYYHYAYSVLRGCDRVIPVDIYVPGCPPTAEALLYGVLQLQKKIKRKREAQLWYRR
C. briggsae complex I, sequence (Q8HEC4 whole entry): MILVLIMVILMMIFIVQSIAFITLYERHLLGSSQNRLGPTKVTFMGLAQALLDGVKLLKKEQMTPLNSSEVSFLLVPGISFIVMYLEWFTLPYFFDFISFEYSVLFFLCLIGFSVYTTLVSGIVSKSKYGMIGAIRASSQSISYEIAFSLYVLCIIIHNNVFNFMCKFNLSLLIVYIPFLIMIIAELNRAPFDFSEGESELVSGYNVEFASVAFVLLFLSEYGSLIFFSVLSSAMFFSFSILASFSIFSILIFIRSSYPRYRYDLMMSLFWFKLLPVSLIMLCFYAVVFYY

In the case of `Cc1ccccc1OCCCCn1cnc2ccccc21` [Compound 7732524], the remaining activity at 0.0001 µM (C. briggsae complex I; [1]) is reported as 92.8%, the remaining activity at 0.0001 µM (C. briggsae complex I; [2]) is reported as 92.9% and the remaining activity at 0.0005 µM (C. briggsae complex I; [1]) is reported as 91%. For the same compound, the remaining activity at 0.0005 µM (C. briggsae complex I; [2]) was 90.7%, the remaining activity at 0.001 µM (C. briggsae complex I; [1]) was 90.6% and the remaining activity at 0.001 µM (C. briggsae complex I; [2]) was 94.1%. For the same compound, the remaining activity at 0.0025 µM (C. briggsae complex I; [1]) was 91.8%, the remaining activity at 0.0025 µM (C. briggsae complex I; [2]) was 95.4% and the remaining activity at 0.005 µM (C. briggsae complex I; [1]) was 99.8%. It also gave a remaining activity at 0.005 µM (C. briggsae complex I; [2]) of 102%, a remaining activity at 0.013 µM (C. briggsae complex I; [1]) of 86.4% and a remaining activity at 0.013 µM (C. briggsae complex I; [2]) of 91.2%. For the same compound, the remaining activity at 0.025 µM (C. briggsae complex I; [1]) was 74.3%, the remaining activity at 0.025 µM (C. briggsae complex I; [2]) was 77.1% and the remaining activity at 0.063 µM (C. briggsae complex I; [1]) was 43.5%. The remaining activity at 0.063 µM (C. briggsae complex I; [2]) was 44.1%, the remaining activity at 0.125 µM (C. briggsae complex I; C. briggsae mitochondria, 0.125 µM, Mean, read-out: in vitro complex I activity relative to solvent control) was 26.1% and the remaining activity at 0.313 µM (C. briggsae complex I; C. briggsae mitochondria, 0.313 µM, Mean, read-out: in vitro complex I activity relative to solvent control) was 7.94%. For the same compound, the remaining activity at 0.625 µM (C. briggsae complex I; C. briggsae mitochondria, 0.625 µM, Mean, read-out: in vitro complex I activity relative to solvent control) was 0.818%, the remaining activity at 1.5 µM (C. briggsae complex I; C. briggsae mitochondria, 1.5 µM, Mean, read-out: in vitro complex I activity relative to solvent control) was 1.29% and the remaining activity at 3 µM (C. briggsae complex I; C. briggsae mitochondria, 3 µM, Mean, read-out: in vitro complex I activity relative to solvent control) was 1.71%. It also gave a remaining activity at 15 µM (C. briggsae complex I; C. briggsae mitochondria, 15 µM, Mean, read-out: in vitro complex I activity relative to solvent control) of 1.4%, a remaining activity at 37.5 µM (C. briggsae complex I; C. briggsae mitochondria, 37.5 µM, Mean, read-out: in vitro complex I activity relative to solvent control) of 1.05% and a remaining activity at 75 µM (C. briggsae complex I; C. briggsae mitochondria, 75 µM, Mean, read-out: in vitro complex I activity relative to solvent control) of 0.358%. The IC50 (C. briggsae complex I; purified mitochondria) was 60.3 nM, the “# Mice cured/ # Mice investigated” value (H. polygyrus; single oral dose 200 mg/kg) was 0/4 and the “% Worm burden reduction” value (H. polygyrus; [3]) was 24.6%. For the same compound, the “Median # of living H. polygyrus worms” value (H. polygyrus; single oral dose 200 mg/kg) was 93.5 (5.0), the “% Worm burden reduction” value (H. polygyrus; [4]) was 24.5968% and the “Live worms in intestine (individual mouse)” value (H. polygyrus; single oral dose of 200 mg/kg) was 95 and 92 and 111 and 85. For the same compound, the “Live worms in intestine, Median (+/- MAD)” value (H. polygyrus; single oral dose of 200 mg/kg) was 93.5 (5.0).

`Clc1ccc(SCCCCn2cnc3ccccc32)cc1` [Compound 7925515] was tested, and the “# Mice cured/ # Mice investigated” value (H. polygyrus; single oral dose 200 mg/kg) was 0/4, the “% Worm burden reduction” value (H. polygyrus; [3]) was 19.4% and the “Median # of living H. polygyrus worms” value (H. polygyrus; single oral dose 200 mg/kg) was 100.0 (8.0). For the same compound, the “% Worm burden reduction” value (H. polygyrus; [4]) was 19.3548%, the “Live worms in intestine (individual mouse)” value (H. polygyrus; single oral dose of 200 mg/kg) was 113 and 100 and 92 and the “Live worms in intestine, Median (+/- MAD)” value (H. polygyrus; single oral dose of 200 mg/kg) was 100 (8.0).

— publication PMC11079024, “Identification of a family of species-selective complex I inhibitors as potential anthelmintics” (Nature Communications, 2024)
